Marks after values point to notes of the source that are not given here.
Columns and labels:
[1] = system: ICAM-1 expression for THP-1 cells; assay: Inhibitory activity against TNF-α-induced ICAM-1 expression in THP-1 cells; type: cell-based, human; conditions: 30 μM, TNF-α 10 ng/ml
Method: The following is the process of experiment on inhibitory activity against ICAM-1 expression for THP-1 cells.
THP-1 cells were cultured in CO2 incubator (5% CO2, 95% relative humidity, 37° C.) using RPMI-1640 broth (RPMI-1640, Gibco BRL 23400-021, 1.62%; 0.2% NaHCO3; 1% antimicrobial agents with penicillin and streptomycin mixed) with 10% fetal bovine serum (Gibco BRL 26140-079, FBS) added to the culture media. Samples for test were melted in DMSO, diluted with phosphate buffered saline solution (PBS) to below 5% and added to reactive solution by 5%, so as to set the concentration of DMSO with samples melted therein not to exceed 0.25% in the final solution. 200 μl of THP-1 cells (2.5×10^5 cells/ml) was divided into each well of 96-well with addition of 10 μl of solution prepared at constant concentration. After culturing it in 37° C. CO2 incubator for 1 hour, TNF-α (final concentration: 10 ng/ml) was added to induce ICAM-1 expression and it was cultured in CO2 incubator for 16 more hours. The reactive solution was made to isolate nonspecific bonding part by adding 25 μl of glutaraldehyde buffer solution (glutaraldehyde 2.08% in PBS) to set cells at well, washing it with PBST (0.005% tween-20 in PBS) and adding 3% skim milk. […] Then, the inhibition ratio of the expression by samples was calculated after measuring absorbance at 490 nm and ICAM-1 expression of THP-1 cells by TNF-α.

atherosclerotic lesion = assay: Inhibitory activity against atherosclerotic lesion in LDLR−/− mice on high cholesterol diet; type: in vivo; conditions: 1.0% in high cholesterol diet, 8 weeks
Source text: The process of experiment on inhibitory activity of atherosclerotic lesion described in detail is as follows. Step I) Mouse Breeding and Experiment on Administration of the Extract of […] rugosa to the Mouse […] During the experiment, the mice had free access to water and food. Step II) Measurement of Atherosclerotic Lesion Models After 8 weeks of experiment, the blood was gathered through the eyes of all mice. Then, PBS ([…]) was flowed through the heart and the artery of mice for 10 minutes and subsequently paraformaldehyde was flowed through for 5 minutes. […] Six frozen sections (9 μm each), prepared beginning from the area of artery using microtome maintaining low temperature (-20° C.), were stained with Oil red O and counter-stained with Harris hematoxylin. These stained sections were then quantified by computer-assisted morphometry and the average lesion size was calculated for each animal group. In this manner, inhibitory activity against sample group's lesion according to outbreak of control group's lesion was calculated.

Row | SMILES | Inhibitory activity of ICAM-1 expression (%) [1] [%] | Lesion size (μm^2) (atherosclerotic lesion) | Inhibitory activity (%) against atherosclerotic lesion (atherosclerotic lesion; vs control group)
1 | C[C@@H]1C[C@H]2[C@@H]3CCC4=CC(=O)C=C[C@]4(C)[C@@]3(F)[C@@H](O)C[C@]2(C)[C@@]1(O)C(=O)CO [Dexamethasone, dexamethasone, reference compound] | 40.1 ± 1.7 | – | –
2 | CC[C@H](C)C(=O)O[C@H]1C[C@@H](C)C=C2C=C[C@H](C)[C@H](CC[C@@H]3C[C@@H](O)CC(=O)O3)[C@H]21 [Lovastatin, lovastatin, reference compound] | – | 291442.0 ± 96927.8 | 50.9*** %

Source: US7534456B2, “Agastache rugosa extract and composition containing tilianin isolated and purified from said extract having anti-inflammatory activity and anti-atherogenic activity” (Korea Research Institute of Bioscience and Biotechnology, priority 2001, dated 2009)
